{
  "source": "paper PMC2074783",
  "about": "“Metabolism and pharmacokinetics of the anti-tumour agent 2,3,5-trimethyl-6-(3-pyridylmethyl)1,4-benzoquinone (CV-6504)” (British Journal of Cancer, 1996)",
  "key": {"MAC13 cells": {"tested_on": "MAC13 cells", "experiment": "Growth of MAC13 cells in vitro after 72 h", "format": "cell-based, murine", "details": "for Inhibition of the growth of MAC13 cells in vitro: concentrations up to 100 µM, 72 h", "source_text": "(§1) Bridsh Journal of Cancer (1996) 74, 1349-1353 ? 1996 Stockton Press All rights reserved 0007-0920/96 $12.00 Metabolism and pharmacokinetics of the anti-tumour agent 2,3,5- trimethyl-6-(3-pyridylmethyl) 1,4-benzoquinone (CV-6504) H J Hussey and M J Tisdale Pharmaceutical Sciences Institute, Aston University, Birmingham B4 7ET, UK. Summary 2,3,5-Trimethyl-6-(3-pyridylmethyl)1,4-benzoquinone (CV-6504) is an effective inhibitor of the growth of established murine adenocarcinomas (MACs) and is shortly to enter clinical investigation. When administered to mice bearing the MAC16 tumour, CV-6504 rapidly disappeared from the plasma and tissues and there was an accumulation of the sulphate and glucuronide metabolites. […] The concentration of glucuronide and sulphate metabolites in both tumour and liver decreased with time. […] Although the sulphate and glucuronide conjugates of CV-6504 were ineffective inhibitors of the growth of MAC13 cells in vitro at concentrations up to 100 µM, in vivo at a concentration of 50 mg kg-' day-' the conjugates produced a similar anti-tumour effect to CV-6504 at a concentration of 5 mg kg-} day-l. […] Using MAC13 cells ex vivo, CV-6504 inhibited conversion of arachidonic acid to 5-, 12- and 15- hydroxyeicosatetraenoic acids (HETE). The percentage reduction in formation of 12- and 15-HETE exceeded that of 5-HETE. Inhibition of HETE formation may be responsible for the anti-tumour activity of CV-6504. […] Our own studies have identified the 5-lipoxygenase inhibitor (Ohkawa et al., 1991a), 2,3,5-trimethyl-6-(3-pyridyl- methyl)1,4-benzoquinone (CV-6504), as an effective inhibitor of the growth of established murine adenocarcinomas (MAC) in vivo with a therapeutic index of at least 10 (Hussey et al., 1996). […] CV-6504 undergoes rapid reduction by two-electron donating enzymes, such as DT-diaphorase, and the resulting hydroquinone inhibits both 5-lipoxygenase activity and lipid peroxidation on the basis of its antioxidant ability (Ohkawa et al., 199 lb) by reducing the ferric iron in the active site of the enzyme to the ferrous (resting state). Studies on the metabolism of CV-6504 by mice, rats, dogs and monkeys indicate reduction of the quinone ring and subsequent conjugation to yield the 1- and 4-glucuronides and the corresponding sulphates (Takeda Chemical Co., personal communication). […] In the present study the tumour and tissue levels of CV- Correspondence: HJ Hussey Received 4 March 1996; revised 21 May 1996; accepted 29 May 1996 6504 and its glucuronide and sulphate metabolites have been determined after single and consecutive dosing of mice bearing the MAC16 adenocarcinoma. A comparison has also been made between CV-6504 and its glucuronide and sulphate metabolites on tumour growth and metabolism of AA along the lipoxygenase pathways with a view to establishing the mechanism of the anti-tumour effect. Material and methods Pure strain NMRI mice were obtained from our own breeding colony and were fed a rat and mouse breeding diet (Pilsbury's, Birmingham) and water ad libitum. Male animals weighing 20-25 g were transplanted subcutaneously with 1-2 mm3 fragments of the MAC16 or MAC13 tumours by trocar into the right flank. The experiments were initiated when the tumour volume, calculated from the formula: length x (width)2 2 was between 72 and 128 mm3. Tumour dimensions were measured by calipers. […]"}, "MAC13 tumour": {"tested_on": "MAC13 tumour", "experiment": "Growth of the MAC13 tumour in vivo", "design": "species or system NMRI mice", "details": "50 mg kg-1 daily p.o.; for Anti-tumour activity in comparison with the 1-glucuronide and 4-sulphate: MAC13 tumour, difference not significant", "source_text": "as §1, with “calipers. Mice bearing the MAC13 tumour were subject to restricted randomisation into groups of nine to receive either CV-6504 (5 mg kg-') or the 1- or 4- glucuronide, or the 1- or 4-sulphate (50 mg kg-'). CV-6504 and the sulphate and glucuronide metabolites were supplied by Takeda Chemical Industries Ltd., Osaka, Japan and were administered p.o. daily in aqueous solution (0.1 ml). Control animals received water alone (0.1 ml).” for “calipers.”"}, "[1]": {"tested_on": "conversion of arachidonic acid to HETEs in MAC13 cells", "experiment": "Lipoxygenase metabolites of arachidonate in MAC13 tumour cells ex vivo", "format": "cell-based, murine", "source_text": "as §1, with “calipers. Mice bearing the MAC13 tumour were subject to restricted randomisation into groups of nine to receive either CV-6504 (5 mg kg-') or the 1- or 4- glucuronide, or the 1- or 4-sulphate (50 mg kg-'). CV-6504 and the sulphate and glucuronide metabolites were supplied by Takeda Chemical Industries Ltd., Osaka, Japan and were administered p.o. daily in aqueous solution (0.1 ml). Control animals received water alone (0.1 ml).” for “calipers.”"}, "[2]": {"experiment": "Metabolism and tissue levels of [14C]CV-6504 in mice bearing the MAC16 tumour", "details": "male, NMRI, mouse, in vivo, 24 h", "source_text": "Bridsh Journal of Cancer (1996) 74, 1349-1353 ? 1996 Stockton Press All rights reserved 0007-0920/96 $12.00 Metabolism and pharmacokinetics of the anti-tumour agent 2,3,5- trimethyl-6-(3-pyridylmethyl) 1,4-benzoquinone (CV-6504) H J Hussey and M J Tisdale Pharmaceutical Sciences Institute, Aston University, Birmingham B4 7ET, UK. Summary 2,3,5-Trimethyl-6-(3-pyridylmethyl)1,4-benzoquinone (CV-6504) is an effective inhibitor of the growth of established murine adenocarcinomas (MACs) and is shortly to enter clinical investigation. When administered to mice bearing the MAC16 tumour, CV-6504 rapidly disappeared from the plasma and tissues and there was an accumulation of the sulphate and glucuronide metabolites. […] The concentration of glucuronide and sulphate metabolites in both tumour and liver decreased with time. […] In the present study the tumour and tissue levels of CV- Correspondence: HJ Hussey Received 4 March 1996; revised 21 May 1996; accepted 29 May 1996 6504 and its glucuronide and sulphate metabolites have been determined after single and consecutive dosing of mice bearing the MAC16 adenocarcinoma. […] The experiments were initiated when the tumour volume, calculated from the formula: length x (width)2 2 was between 72 and 128 mm3. Tumour dimensions were measured by calipers. […]"}, "MAC16 cells": {"tested_on": "MAC16 cells", "experiment": "Inhibition of the growth of MAC16 cells in vitro", "format": "cell-based, murine", "details": "Mus musculus, tissue culture"}},
  "note": "pIC50: −log10 of the molar value.",
  "data": [
    {"smiles": "Cc1c(C)c(OC2OC(C(=O)O)C(O)C(O)C2O)c(C)c(Cc2cccnc2)c1O", "note": "(stereo not shown) [CV-6504-4-glucuronide]", "values": [
      {"measurement": "Inhibition of the growth of MAC13 cells in vitro", "setting": "MAC13 cells", "value": "ineffective"},
      {"measurement": "Anti-tumour activity against MAC13 tumour in vivo compared with free CV-6504 at 5 mg kg-1 day-1 orally", "setting": "MAC13 tumour", "value": "similar"},
      {"measurement": "Anti-tumour activity in comparison with the 1-glucuronide and 4-sulphate", "setting": "MAC13 tumour", "value": "slightly reduced"},
      {"measurement": "5-HETE production", "setting": "[1]; 100 µM, 30 min", "value": "significantly reduced"},
      {"measurement": "11-HETE production", "setting": "[1]; 100 µM, 30 min", "value": "significantly reduced"},
      {"measurement": "12-HETE production", "setting": "[1]; 100 µM, 30 min", "value": "significantly reduced"},
      {"measurement": "15-HETE production", "setting": "[1]; 100 µM, 1 h", "value": "significantly reduced"}
    ]},
    {"smiles": "Cc1c(C)c(OS(=O)(=O)O)c(C)c(Cc2cccnc2)c1O", "note": "[4-sulphate]", "values": [
      {"measurement": "Inhibition of the growth of MAC13 cells in vitro", "setting": "MAC13 cells", "value": "ineffective"},
      {"measurement": "Anti-tumour activity against MAC13 tumour in vivo compared with free CV-6504 at 5 mg kg-1 day-1 orally", "setting": "MAC13 tumour", "value": "similar"}
    ]},
    {"smiles": "Cc1c(C)c(OS(=O)(=O)O)c(Cc2cccnc2)c(C)c1O", "note": "[CV-6504-1-sulphate]", "values": [
      {"measurement": "Inhibition of the growth of MAC13 cells in vitro", "setting": "MAC13 cells", "value": "ineffective"},
      {"measurement": "Anti-tumour activity against MAC13 tumour in vivo compared with free CV-6504 at 5 mg kg-1 day-1 orally", "setting": "MAC13 tumour", "value": "similar"},
      {"measurement": "Anti-tumour activity in comparison with the 1-glucuronide and 4-sulphate", "setting": "MAC13 tumour", "value": "slightly reduced"},
      {"measurement": "12-HETE production", "setting": "[1]; 100 µM, 30 min", "value": "significantly reduced"},
      {"measurement": "15-HETE production", "setting": "[1]; 100 µM, 30 min", "value": "significantly reduced"},
      {"measurement": "11-HETE production", "setting": "[1]; 100 µM, 1 h", "value": "significantly reduced"},
      {"measurement": "5-HETE production", "setting": "[1]; 100 µM, 2 h", "value": "significantly reduced"}
    ]},
    {"smiles": "CC1=C(C)C(=O)C(Cc2cccnc2)=C(C)C1=O", "note": "[CV-6504, 2,3,5-Trimethyl-6-(3-pyridylmethyl)1,4-benzoquinone]", "values": [
      {"measurement": "concentration of free CV-6504 in the liver", "setting": "[2]", "value": 240, "unit": "nM"},
      {"measurement": "concentration of free CV-6504 in the tumour", "setting": "[2]", "value": 3300, "unit": "nM"},
      {"measurement": "pIC50", "setting": "MAC16 cells", "value": 5.52},
      {"measurement": "pIC50", "setting": "MAC13 cells; Mus musculus, MAC13, 72 h, read-out: IC50 for inhibition of growth of MAC13 cells in vitro", "value": 5.52},
      {"measurement": "percentage reduction in formation of 12- and 15-HETE relative to that of 5-HETE", "setting": "[1]; 10 µM, 30 min", "value": "exceeded"},
      {"measurement": "5-HETE production", "setting": "[1]; 10 µM, 30 min, [3H]AA", "value": "significantly decreased"},
      {"measurement": "11-HETE production", "setting": "[1]; 10 µM, 30 min, [3H]AA", "value": "significantly decreased"},
      {"measurement": "12-HETE production", "setting": "[1]; 10 µM, 30 min, [3H]AA", "value": "significantly decreased"},
      {"measurement": "15-HETE production", "setting": "[1]; 10 µM, 30 min, [3H]AA", "value": "significantly decreased"},
      {"measurement": "total unmetabolised AA", "setting": "[1]; 10 µM, 30 min, [3H]AA", "value": "significantly decreased"}
    ]},
    {"smiles": "Cc1c(C)c(OC2OC(C(=O)O)C(O)C(O)C2O)c(Cc2cccnc2)c(C)c1O", "note": "(stereo not shown) [CV-6504-1-glucuronide]", "values": [
      {"measurement": "Inhibition of the growth of MAC13 cells in vitro", "setting": "MAC13 cells", "value": "ineffective"},
      {"measurement": "Anti-tumour activity against MAC13 tumour in vivo compared with free CV-6504 at 5 mg kg-1 day-1 orally", "setting": "MAC13 tumour", "value": "similar"}
    ]}
  ]
}
